Structures can show the parent of a compound that is named as a salt.
Key:
mice = assay: Toxicity after single administration; assay type: in vivo; details: p.o., death-rate after 7 days
Procedure: (§1) Toxicity after single administration
(§2) IVA:NMRI (SPF) mice, fasted for 18 hours before treatment with water ad libitum, were used. The compounds, dissolved or suspended in a 0.2% Tween® 80 aqueous solution, were administered orally, at constant concentration (10%). According to the death-rate observed after 7 days from treatment, the approximate LD50 values, reported in Table 1, were interpolated on Probi ts chart.

respiratory tract = assay: Mucosecretodynamic activity, "in vivo" fluorescein test; set-up: species or system male IVA-NMRI (SPF) mice; details: mice, p.o., 90 minutes before i.v. fluorescein, increase of fluorescein excretion; for ED50: Mus musculus, po
Procedure: Mucosecretodynamic activity
Male IVA-NMRI (SPF) mice, housed for at least 1 week under standard conditions, fasted (water ad libitum) for 18 hours before treatment, were used.
The compounds, dissolved or suspended in 20 ml/kg of a 0.2% Tween® 80 aqueous suspension, were administred orally 90 minutes before the intravenous injection of 1% (5 ml/kg) fluorescein. Animals treated p.o. with the only vehicle were used as a control group. After 30 minutes from the fluorescein injection the animals were killed and subjected to incannulation of the trachea. Then the respiratory tract was washed and the spectrophotometric dosage of the fluorescein was carried out against phosphate buffer on the so collected eluate, suitably diluted with phosphate buffer and centrifugated.
The amount of fluorescein was determined by means of a calibration curve prepared under the same experimental conditions and the excretion was expressed as ng/hour/10 g body weight. For each experimental session the percent increases of excretion versus controls were calculated.

porcine gastric mucine = assay: "In vitro" mucolytic activity (viscoelasticity of porcine gastric mucine); assay type: biochemical; details: 6% porcine gastric mucine, 25° C., 30 minutes, 0.075 Hz, versus control
Procedure: "In vitro" mucolytic activity
Control samples were similarly added with the vehicle only. After incubation at 25° C. for 30 minutes, the analysis of the rheologic characteristics was carried out by means of Contraves Low-Shear 30 sinus viscosimeter provided with an oscillating device for the study of the viscoelasticity. The dynamic measurements of the viscoelasticity were carried out at a single frequency (0.075 Hz), using an appropriate concentrical cylinder measurement system, particularly suited for bronchial mucus (Contraves MS-LS 1-1).
The rheogramm was recorded on X/Y Rikadenki 11T recorder and the […] determination was carried out by means of vectorial calculation.
The percent decreases versus control samples, reported in Table 1, were determined from the means of the values of said parameters (at least 7 replications per sample).

[1] = Toxicity after single administration; assay type: in vivo; details: mouse, in vivo, po, mice, p.o., death-rate after 7 days, read-out: Acute toxicity LD50 approx.
Procedure: as §1, §2

4-methyl-2-[(3-thiazolidyl)carbonyl]-cyclohexane-carboxylic acid lysine salt [Compound 11]
Acute toxicity LD50 approx. (mice): > 4000 mg/kg | "in vivo" fluorescein test ED50 (respiratory tract): 300 mg/kg | "in vitro" % decrease elasticity (G') (porcine gastric mucine): 6% | "in vitro" % decrease viscosity (.eta.) (porcine gastric mucine): 9%

CCC1SCCN1C(=O)C1C2C=CC(C2)C1C(=O)O (centres unmarked) [Compound 2, 3-[3-[(2-Ethyl)-thiazolidine]carbonyl]-bicyclo-[2,2,1]-hepta-5-ene-2-carboxylic acid]
LD50 at 168 h [1]: ~3000 mg/kg | "in vitro" % decrease elasticity (G') (porcine gastric mucine): 33% | "in vitro" % decrease viscosity (.eta.) (porcine gastric mucine): 58%

O=C(O)C1C2C=CC(C2)C1C(=O)N1CCSC1 (centres unmarked) [Compound 3, 3-[(3-thiazolidyl)-carbonyl]-bicyclo-[2,2,1]-hepta-5-ene-2-carboxylic acid]
LD50 at 168 h [1]: ~1500 mg/kg | ED50 (respiratory tract): 170 mg/kg

O=C(O)CCC(=O)N1CCSC1 [Compound 4, 4-oxo-4-(3-thiazolidyl)-butanoic acid]
LD50 at 168 h [1]: ~4000 mg/kg

O=C(CCC(=O)N1CCSC1)N1CCSC1 [Compound 7, 1,4-Bis-(3-thiazolidyl)-1,4-dioxo-butane]
LD50 at 168 h [1]: ~3000 mg/kg | ED50 (respiratory tract): ~750 mg/kg

N[C@@H](CSCC(=O)N1CCSC1)C(=O)O [Compound 8, 2-Amino-3-[[(3-thiazolidyl)-carbonylmethyl]thio]propionic acid]
LD50 at 168 h [1]: > 4000 mg/kg

CC(SCC(=O)N1CCSC1)C(=O)NCC(=O)O (centres unmarked) [Compound 9, 2-[2-[(3-thiazolidyl)carbonylmethylthio]-propionamide]acetic acid]
LD50 at 168 h [1]: > 4000 mg/kg | "in vitro" % decrease elasticity (G') (porcine gastric mucine): 21% | "in vitro" % decrease viscosity (.eta.) (porcine gastric mucine): 40%

O=C(O)CCC(=O)N1CCSC1 [Compound 10, 4-oxo-4-(3-thiazolidyl)butanoic acid sodium salt]
Acute toxicity LD50 approx. (mice; sodium salt, 10080 min): > 4000 mg/kg

CC1(C(=O)N2CCSC2)CCC(C(=O)O)C1(C)C (centres unmarked) [Compound 12, -3-[(3-thiazolidyl)-carbonyl]-2,2,3-trimethyl-cyclopentanecarboxylic acid lysine salt]
LD50 at 168 h [1]: > 4000 mg/kg | ED50 (respiratory tract): 310 mg/kg | "in vitro" % decrease elasticity (G') (porcine gastric mucine): 13% | "in vitro" % decrease viscosity (.eta.) (porcine gastric mucine): 0%

CC(=O)N[C@@H](CS)C(=O)O [N-acetyl-L-cysteine, N--acetyl-L-cysteine, reference compound]
"in vitro" % decrease elasticity (G') (porcine gastric mucine): 39% | "in vitro" % decrease viscosity (.eta.) (porcine gastric mucine): 53%
